Experiments:
[1] = molecular target: T1, human PI3Kalpha p110 catalytic subunit (Rat-1 pBABEpuro Myr-HA-hp110alpha) (Homo sapiens, UniProt P42336); experiment: Cellular assay PI3Kalpha (p-Akt(S473) SureFire, Rat-1_PI3Kalpha cells); assay type: cell-based; conditions: 1 h compound treatment, read-out: Rat1-PI3Ka/ IC50
T1 construct: Myr (myristoylation signal) (N); HA (N); expressed in transfected cells; host or cells: Rat-1
Text: AlphaScreen (Amplified Luminescent Proximity Homogeneous Assay, ALPHA, Perkin Elmer) is a non-radioactive bead-based proximity assay technology to study biomolecular interactions in a homogenous microtiter plate format. The brand name SureFire denotes AlphaScreen assays that are adapted to quantify the phosphorylation of endogenous cellular proteins in cell lysates, by using matched antibody pairs, which consist of an anti-phospho-kinase and an anti-kinase antibody. The assay allows characterization of kinase signaling in cells as well as measurement of kinase inhibitor effects. The AlphaScreen technology provides several advantages over standard assay techniques such as ELISA, as it avoids time-consuming washing procedures and reduces plate handling. Furthermore, it is miniaturizable at least to a 384-well format and provides sensitivity down to the femtomolar range, dependent on the affinity of the antibodies included in the individual AlphaScreen SureFire assay kit. High sensitivity is reached by an intrinsic amplification mechanism, which involves production of singlet oxygen molecules. SureFire assay kits are commercially available for specific targets and include pairs of validated antibodies (PerkinElmer). This report describes common procedures applied for AlphaScreen SureFire assays and respective semi-automated steps for routine kinase inhibitor profiling in cell-based assays.
The Rat-1 cell lines stably overexpressing activated PI3K class I isoforms Rat-1 pBABEpuro Myr-HA-hp110 delta (Rat-1_PI3Kdelta) and Rat-1 pBABEpuro Myr-HA-hp110alpha (Rat-1_PI3Kalpha) and Rat-1 pBABEpuro Myr-HA-hp110 beta (Rat-1_PI3beta) were prepared as described (Maira S M, Stauffer F, Brueggen J, Furet P, Schnell C, Fritsch C, Brachmann S, Chène P, de Pover A, Schoemaker K, Fabbro D, Gabriel D, Simonen M, Murphy L, Finan P, Sellers W, García-Echeverría C (2008), Mol Cancer Ther. 7:1851-63 and Maira S M, Pecchi S, Brueggen J, Huh K, Schnell C, Fritsch C, Nagel T, Wiesmann M, Brachmann S, Dorsch M, Chène P, Schoemaker K, De Pover A, Menezes D, Fabbro D, Sellers W, García-Echeverría C, Voliva C F (2011), Mol. Cancer Ther., accepted). All cell lines were cultivated in complete growth medium (DMEM high glucose, 10% (v/v) fetal bovine serum, 1% (v/v) MEM NEAA, 10 mM HEPES, 2 mM L-glutamine, puromycin (10 μg/mL for Rat-1_PI3Kdelta and Rat-1_PI3Kalpha, 4 ug/mL for Rat-1_PI3beta), 1% (v/v) Pen/Strep) to 90% confluency at 37° C./5% CO2/90% humidity in a humidified CO2 incubator and were split twice a week.
The following materials were used for p-AKT(S473) detection in Rat-1 cell lysates: Dulbecco's modified Eagle's medium (DMEM) high glucose (Gibco Invitrogen, Basel, Switzerland, Cat. No. 41965), Heat Inactivated Fetal Bovine Serum, Qualified (HI FBS; Gibco Invitrogen, Basel, Switzerland, Lot. No. 16140), MEM non essential amino acids (NEAA; Gibco Invitrogen, Basel, Switzerland, Cat. No. 11140), HEPES (Gibco Invitrogen, Basel, Switzerland, Cat. No. 15630), Penicillin/Streptomycin (Pen/Strep, 100×; Gibco Invitrogen, Basel, Switzerland, Cat. No. 15140-122), L-Glutamine (Gibco Invitrogen, Basel, Switzerland, Cat. No. 25030), Puromycin (Sigma Aldrich, Buchs, Switzerland, Cat. No. P9620), DMSO (MERCK, Dietikon, Switzerland, Cat. No. 8.02912.2500), H2O, MilliQ-H2O unless otherwise stated (MILLIPORE QGARDOOR1, Millipore, Zug, Switzerland), Bovine serum albumine (BSA; Sigma Aldrich, Buchs, Switzerland Cat. No. A8412), SureFire p-Akt 1/2 (Ser473) Assay Kit (PerkinElmer, Schwerzenbach, Switzerland, Cat. No. TGRAS50K).
The p-Akt(S473) SureFire assay measures the phosphorylation of endogenous cellular Akt 1/2 at Ser473 in cell lysates. Using Rat-1 cells stably expressing myr-HA-tagged versions of the human PI3Kdelta, PI3Kalpha, or PI3Kbeta p110 catalytic subunit isoforms, the assay was developed as a two-plate protocol in a 384-well format.

A2058 cells = experiment: Cell cycle G2/M arrest Cytospin assay to detect tubulin binding (off-target); assay type: cell-based; set-up: key: 0=no condensed DNA observed (indicating no off target activity); 1=(indicating weak off target activity); 2=(indicating medium off target activity); 3=large amount of condensed DNA observed (indicating strong off-target activity); conditions: 5 μM test item, 24 hours
Method: The off-target effect (evidence of tubulin binding) was measured as follows.
Cell cycle G2/M arrest Cytospin assay to detect tubulin binding (off-target) binding activities of MAPP derivatives: 5×10^5 cells A2058 cells were plated in 6-well cluster, with 2 mL of DMEM (high Glucose containing 1% sodium pyruvate, 1% glutamin and 10% FCS). 18 hours later, the test items were added at a concentration of 5 μM (spiking 1 μL of a 10 mM solution of the test item). 24 hours later, the cells were trypsinized and transferred into a 15 mL conical tube. Cells are then pelleted by centrifugation, and resuspended with PBS/0 (containing 10% FCS). Cells are counted with a CASY counter, and each samples equilibrated to 1×10^6 cells/mL. […] The staining was visually assessed for the presence of condensed DNA and given a score where 0=no condensed DNA observed (indicating no off target activity), 1=(indicating weak off target activity), 2=(indicating medium off target activity), 3=large amount of condensed DNA observed (indicating strong off-target activity).

T1 sequence (P42336 whole entry): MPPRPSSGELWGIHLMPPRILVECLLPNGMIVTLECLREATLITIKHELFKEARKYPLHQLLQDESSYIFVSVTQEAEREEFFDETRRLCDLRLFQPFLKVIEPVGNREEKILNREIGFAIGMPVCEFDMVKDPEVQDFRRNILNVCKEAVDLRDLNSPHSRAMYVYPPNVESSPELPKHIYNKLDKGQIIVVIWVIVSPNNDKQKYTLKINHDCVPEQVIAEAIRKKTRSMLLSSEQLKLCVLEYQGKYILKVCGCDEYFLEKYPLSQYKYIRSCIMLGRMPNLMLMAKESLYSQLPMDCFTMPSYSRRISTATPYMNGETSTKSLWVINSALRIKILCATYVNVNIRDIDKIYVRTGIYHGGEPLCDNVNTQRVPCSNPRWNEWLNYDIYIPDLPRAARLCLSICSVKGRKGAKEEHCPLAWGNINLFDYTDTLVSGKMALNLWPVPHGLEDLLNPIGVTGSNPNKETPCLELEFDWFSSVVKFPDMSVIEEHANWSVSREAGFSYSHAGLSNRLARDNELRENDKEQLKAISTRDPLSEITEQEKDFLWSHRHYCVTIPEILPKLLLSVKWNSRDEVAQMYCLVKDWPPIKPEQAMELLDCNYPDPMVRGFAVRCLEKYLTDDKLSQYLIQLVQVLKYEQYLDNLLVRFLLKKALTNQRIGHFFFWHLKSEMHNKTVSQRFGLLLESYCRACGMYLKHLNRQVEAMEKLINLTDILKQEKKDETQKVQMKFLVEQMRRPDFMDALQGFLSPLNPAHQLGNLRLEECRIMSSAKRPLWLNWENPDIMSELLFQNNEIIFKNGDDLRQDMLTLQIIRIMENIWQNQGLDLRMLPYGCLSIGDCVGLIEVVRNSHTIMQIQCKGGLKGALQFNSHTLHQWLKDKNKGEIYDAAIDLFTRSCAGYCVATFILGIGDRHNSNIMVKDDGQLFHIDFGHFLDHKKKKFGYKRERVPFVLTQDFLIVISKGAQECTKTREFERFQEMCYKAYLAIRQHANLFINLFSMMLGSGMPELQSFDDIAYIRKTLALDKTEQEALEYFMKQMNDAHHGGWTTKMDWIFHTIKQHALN
T1 sequence (Q63787 whole entry partner): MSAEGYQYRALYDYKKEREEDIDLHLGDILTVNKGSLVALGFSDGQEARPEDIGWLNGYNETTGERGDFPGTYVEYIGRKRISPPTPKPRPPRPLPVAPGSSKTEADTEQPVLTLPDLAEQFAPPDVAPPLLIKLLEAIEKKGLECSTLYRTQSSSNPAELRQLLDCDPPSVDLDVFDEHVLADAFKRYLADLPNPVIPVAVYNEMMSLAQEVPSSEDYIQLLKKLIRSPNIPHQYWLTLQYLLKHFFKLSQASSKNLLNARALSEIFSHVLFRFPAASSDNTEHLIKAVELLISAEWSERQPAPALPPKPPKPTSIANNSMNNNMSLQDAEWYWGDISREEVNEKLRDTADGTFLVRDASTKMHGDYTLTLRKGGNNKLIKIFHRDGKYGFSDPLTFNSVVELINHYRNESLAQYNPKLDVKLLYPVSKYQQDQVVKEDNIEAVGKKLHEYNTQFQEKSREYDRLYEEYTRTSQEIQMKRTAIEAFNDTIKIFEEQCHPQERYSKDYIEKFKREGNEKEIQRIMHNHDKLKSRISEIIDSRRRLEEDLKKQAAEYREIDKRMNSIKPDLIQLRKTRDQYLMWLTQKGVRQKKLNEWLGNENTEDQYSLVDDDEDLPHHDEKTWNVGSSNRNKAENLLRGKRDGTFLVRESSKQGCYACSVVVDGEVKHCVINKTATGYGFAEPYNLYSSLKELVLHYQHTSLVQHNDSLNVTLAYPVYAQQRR

Structure (SMILES)	IC50 [1] [nM]	Score (condensed DNA, G2/M arrest; off-target tubulin binding) (A2058 cells)
CC1(CO)COC(=O)N1c1cc(-c2cnc(N)nc2C(F)(F)F)nc(N2CCOCC2)n1 (racemic) [Example 3, 3-(2′-amino-2-morpholino-4′-(trifluoromethyl)-4,5′-bipyrimidin-6-yl)-4-(hydroxymethyl)-4-methyloxazolidin-2-one]	147	0
Nc1ncc(-c2cc(N3C(=O)O[C@@H]4[C@@H](O)CC[C@@H]43)nc(N3CCOCC3)n2)c(C(F)(F)F)n1 (racemic) [Example 22, (3aR*,6R*,6aR*)-3-(2′-Amino-2-morpholino-4′-(trifluoromethyl)-[4,5′-bipyrimidin]-6-yl)-6-hydroxyhexahydro-2H-cyclopenta[d]oxazol-2-one]	95	0
Nc1ncc(-c2cc(N3C(=O)OC4C(O)CCC43)nc(N3CCOCC3)n2)c(C(F)(F)F)n1 (single isomer, unassigned) [Example 22A]	86	
Nc1ncc(-c2cc(N3C(=O)OC4C(O)CCC43)nc(N3CCOCC3)n2)c(C(F)(F)F)n1 (single isomer, unassigned) [Example 22B]	148	
CC1(C)OC(=O)N(c2cc(-c3cnc(N)nc3C(F)(F)F)nc(N3CCOCC3)n2)[C@H]1CO [Example 2, (S)-3-(2′-Amino-2-morpholin-4-yl-4′-trifluoromethyl-[4,5′]bipyrimidinyl-6-yl)-4-hydroxymethyl-5,5-dimethyl-oxazolidin-2-one]	134	
COC[C@H]1COC(=O)N1c1cc(-c2cnc(N)nc2C(F)(F)F)nc(N2CCOCC2)n1 [Example 5, (S)-3-(2′-Amino-2-morpholin-4-yl-4′-trifluoromethyl-[4,5′]bipyrimidinyl-6-yl)-4-methoxymethyl-oxazolidin-2-one]	93	0
C[C@@H]1OC(=O)N(c2cc(-c3cnc(N)nc3C(F)(F)F)nc(N3CCOCC3)n2)[C@H]1CO [Example 6]	94	0
[2H]C1([2H])OC([2H])([2H])C([2H])([2H])N(c2nc(-c3cnc(N)nc3C(F)(F)F)cc(N3C(=O)O[C@H](C)[C@@H]3CO)n2)C1([2H])[2H] [Example 8]	81	0
Nc1ncc(-c2cc(N3C(=O)OC[C@@H]3CCO)nc(N3CCOCC3)n2)c(C(F)(F)F)n1 [Example 9, (S)-3-(2′-Amino-2-morpholin-4-yl-4′-trifluoromethyl-[4,5′]bipyrimidinyl-6-yl)-4-(2-hydroxy-ethyl)-oxazolidin-2-one]	147	
C[C@H]1OC(=O)N(c2cc(-c3cnc(N)nc3C(F)(F)F)nc(N3CCOC[C@@H]3C)n2)[C@H]1CO [Example 10, (4S,5R)-3-[2′-Amino-2-((S)-3-methyl-morpholin-4-yl)-4′-trifluoromethyl-[4,5′]bipyrimidinyl-6-yl]-4-hydroxymethyl-5-methyl-oxazolidin-2-one]	61	0
Nc1ncc(-c2cc(N3CCOC3=O)nc(N3CCOCC3)n2)c(C(F)(F)F)n1 [Example 11, 3-(2′-Amino-2-morpholin-4-yl-4′-trifluoromethyl-[4,5′]bipyrimidinyl-6-yl)-oxazolidin-2-one, reference compound]	256	3
C[C@H]1OC(=O)N(c2cc(-c3cnc(N)nc3C(F)(F)F)nc(N3CCOCC3)n2)[C@H]1COC=O [Example 12, Formic acid (4S,5R)-3-(2′-amino-2-morpholin-4-yl-4′-trifluoromethyl-[4,5′]bipyrimidinyl-6-yl)-5-methyl-2-oxo-oxazolidin-4-ylmethyl ester]	113	0
Nc1ncc(-c2cc(N3C[C@@H](CO)OC3=O)nc(N3CCOCC3)n2)c(C(F)(F)F)n1 [Example 14, (S)-3-(2′-Amino-2-morpholin-4-yl-4′-trifluoromethyl-[4,5′]bipyrimidinyl-6-yl)-5-hydroxymethyl-oxazolidin-2-one]	277	0

Now those with a lower IC50 [1], led by results:

IC50 [1] [nM]	Score (condensed DNA, G2/M arrest; off-target tubulin binding) (A2058 cells)	Structure (SMILES)
58	0	C[C@H]1C(CC(C)(C)O)OC(=O)N1c1cc(-c2cnc(N)nc2C(F)(F)F)nc(N2CCOCC2)n1 (mixture of isomers) [Example 26, (4S,5R)- and (4S,5S)-3-(2′-amino-2-morpholino-4′-(trifluoromethyl)-[4,5′-bipyrimidin]-6-yl)-5-(2-hydroxy-2-methylpropyl)-4-methyloxazolidin-2-one]
45	0	C[C@@H](O)C[C@H]1OC(=O)N(c2cc(-c3cnc(N)nc3C(F)(F)F)nc(N3CCOCC3)n2)[C@H]1C (single isomer, unassigned) [Example 24]
45	0	C[C@H](O)CC1OC(=O)N(c2cc(-c3cnc(N)nc3C(F)(F)F)nc(N3CCOCC3)n2)[C@H]1C (single isomer, unassigned) [Example 25]
48	0	C[C@H]1COC(=O)N1c1cc(-c2cnc(N)nc2C(F)(F)F)nc(N2CCOCC2)n1 [Example 1, (S)-3-(2′-Amino-2-morpholin-4-yl-4′-trifluoromethyl-[4,5′]bipyrimidinyl-6-yl)-4-methyl-oxazolidin-2-one]
31	0	Nc1ncc(-c2cc(N3C(=O)O[C@H]4CCCC[C@@H]43)nc(N3CCOCC3)n2)c(C(F)(F)F)n1 [Example 4, (3aS,7aS)-3-(2′-Amino-2-morpholin-4-yl-4′-trifluoromethyl-[4,5′]bipyrimidinyl-6-yl)-hexahydro-benzooxazol-2-one]
58	0	C[C@H]1COCCN1c1nc(-c2cnc(N)nc2C(F)(F)F)cc(N2C(=O)OC[C@@H]2C)n1 [Example 13, (S)-3-[2′-Amino-2-((S)-3-methyl-morpholin-4-yl)-4′-trifluoromethyl-[4,5′]bipyrimidinyl-6-yl]-4-methyl-oxazolidin-2-one]

Source: US8865894B2, “Oxazolidin-2-one compounds and uses thereof” (Novartis AG, priority 2012, dated 2014)
